Read-outs that look alike come from different tables or passages of the source. Each block holds one compound with its values, some of them ahead of it.
Tests used:
[1] = Plasma stability; format: in vitro ADME; details: 37 °C, 10 µM
Method: About 10 µM of compound 2l was mixed with human plasma and rat plasma and the mixture was shaked at 37 °C for 30 min and 120 min. After each time interval, acetonitrile was added and the mixture was centrifugated (14000 rpm, 4 °C). The supernatant was injected into the LC-MS to detect the remaining amount of compound 2l.

[2] = test system: U251 CNS cancer cell line; test: NCI five-dose testing; format: cell-based; details: Homo sapiens
Method: (§1) Screening against the cancer cell lines was carried out at the National Cancer Institute (NCI, Bethesda, Maryland, USA) applying the standard protocol of the NCI[22].

[3] = test system: HOP-92 non-small cell lung cancer cell line; test: NCI five-dose testing; format: cell-based; details: Homo sapiens; for IC50: HOP-92
Method: as §1

[4] = test system: K-562 leukaemia cell line; test: NCI five-dose testing; format: cell-based; details: Homo sapiens
Method: as §1

[5] = test system: SK-MEL-5 melanoma cell line; test: NCI five-dose testing; format: cell-based; details: Homo sapiens
Method: as §1

[6] = test system: OVCAR-4 ovarian cancer cell line; test: NCI five-dose testing; format: cell-based; details: Homo sapiens
Method: as §1

[7] = test system: HT-29 colon cancer cell line; test: NCI five-dose testing; format: cell-based; details: Homo sapiens
Method: as §1

[8] = test system: MDA-MB-468 breast cancer cell line; test: NCI five-dose testing; format: cell-based; details: Homo sapiens
Method: as §1

[9] = test system: PC-3 prostate cancer cell line; test: NCI five-dose testing; format: cell-based; details: Homo sapiens
Method: as §1

[10] = test system: A498 renal cancer cell line; test: NCI five-dose testing; format: cell-based; details: Homo sapiens
Method: as §1

[11] = test system: CNS cancer cell lines; test: NCI five-dose testing, subpanel mean; format: cell-based; details: subpanel IV: CNS cancer
Method: as §1

[12] = test system: Leukaemia cell lines; test: NCI five-dose testing, subpanel mean; format: cell-based; details: subpanel I: Leukaemia
Method: as §1

[13] = test system: prostate cancer cell lines; test: NCI five-dose testing, subpanel mean; format: cell-based; details: subpanel VIII: prostate cancer
Method: as §1

[14] = test system: renal cancer cell lines; test: NCI five-dose testing, subpanel mean; format: cell-based; details: subpanel VII: renal cancer
Method: as §1

[15] = test system: colon cancer cell lines; test: NCI five-dose testing, subpanel mean; format: cell-based; details: subpanel III: colon cancer
Method: as §1

[16] = test system: non-small cell lung cancer cell lines; test: NCI five-dose testing, subpanel mean; format: cell-based; details: subpanel II: non-small cell lung cancer
Method: as §1

[17] = test system: melanoma cell lines; test: NCI five-dose testing, subpanel mean; format: cell-based; details: subpanel V: melanoma
Method: as §1

[18] = test system: breast cancer cell lines; test: NCI five-dose testing, subpanel mean; format: cell-based; details: subpanel IX: breast cancer
Method: as §1

[19] = test system: ovarian cancer cell lines; test: NCI five-dose testing, subpanel mean; format: cell-based; details: subpanel VI: ovarian cancer
Method: as §1

Plasma stability, remaining unchanged ([1]; Human plasma, 30 min): 91.5%
Plasma stability, remaining unchanged ([1]; Human plasma, 30 min, listed as diltiazem): 91.5%
Plasma stability, remaining unchanged ([1]; Human plasma, 120 min): 89.3%
Plasma stability, remaining unchanged ([1]; Human plasma, 120 min, listed as diltiazem): 89.3%
Plasma stability, remaining unchanged ([1]; Rat plasma, 30 min): 86.3%
Plasma stability, remaining unchanged ([1]; Rat plasma, 120 min): 45.4%
Compound: COc1ccc([C@@H]2Sc3ccccc3N(CCN(C)C)C(=O)[C@@H]2OC(C)=O)cc1 [Diltiazem]

melting point: 104 to 106 °C
Compound: COc1cccc(-c2nn(-c3ccccc3)cc2-c2ccnc(NCCNS(=O)(=O)c3ccccc3)c2)c1 [Compound 1a, N-(2-((4-(3-(3-methoxyphenyl)-1-phenyl-1H-pyrazol-4-yl)pyridin-2-yl)amino)ethyl) benzenesulfonamide]

melting point: 178 to 180 °C
Compound: COc1cccc(-c2nn(-c3ccccc3)cc2-c2ccnc(NCCNS(=O)(=O)c3cccc4ccccc34)c2)c1 [Compound 1i, N-(2-((4-(3-(3-Methoxyphenyl)-1-phenyl-1H-pyrazol-4-yl)pyridin-2-yl)amino)ethyl)naphthalene-1-sulfonamide]

Compound: O=S(=O)(NCCCNc1cc(-c2cn(-c3ccccc3)nc2-c2cccc(O)c2)ccn1)c1cccc2ccccc12 [Compound 2q, N-(3-((4-(3-(3-Hydroxyphenyl)-1-phenyl-1H-pyrazol-4-yl)pyridin-2-yl)amino)propyl) naphthalene-1-sulfonamide]
CC50 ([2]; U-251, read-out: LD50 (lethal dose 50)): 41.3 µM
IC50 ([2]; U-251, U251, read-out: IC50): 1.28 µM
IC (TGI) ([2]; U-251, U251, read-out: TGI (total growth inhibition concentration)): 13.2 µM
IC50 [3]: 1.56 µM
IC (TGI) ([3]; HOP-92, HOP-92, read-out: TGI (total growth inhibition concentration)): 7.2 µM
LD50 (lethal dose 50) ([3]; HOP-92, read-out: LD50 (lethal dose 50)): > 100 µM
CC50 ([4]; K562, read-out: LD50 (lethal dose 50)): > 100 µM
IC50 ([4]; K562, K-562): 0.92 µM
IC (TGI) ([4]; K562, K-562, read-out: TGI (total growth inhibition concentration)): 4.4 µM
IC50 ([5]; SK-MEL-5): 1.53 µM
LC50 (lethal concentration 50) ([5]; SK-MEL-5, read-out: LD50 (lethal dose 50)): 7.4 µM
IC (TGI) ([5]; SK-MEL-5, read-out: TGI (total growth inhibition concentration)): 3.4 µM
IC50 ([6]; OVCAR-4): 1.92 µM
LC50 (lethal concentration 50) ([6]; OVCAR-4, read-out: LD50 (lethal dose 50)): > 100 µM
IC (TGI) ([6]; OVCAR-4, read-out: TGI (total growth inhibition concentration)): > 100 µM
CC50 ([7]; HT-29, read-out: LD50 (lethal dose 50)): 4.5 µM
IC50 ([7]; HT-29, read-out: IC50): 1.23 µM
IC (TGI) ([7]; HT-29, read-out: TGI (total growth inhibition concentration)): 1.7 µM
IC50 ([8]; MDA-MB-468): 1.8 µM
CC50 ([8]; MDA-MB-468, read-out: LD50 (lethal dose 50)): > 100 µM
IC (TGI) ([8]; MDA-MB-468, read-out: TGI (total growth inhibition concentration)): 6 µM
LC50 (lethal concentration 50) ([9]; PC-3, read-out: LD50 (lethal dose 50)): > 100 µM
IC50 ([9]; PC-3, read-out: IC50): 1.93 µM
IC (TGI) ([9]; PC-3, read-out: TGI (total growth inhibition concentration)): 44.9 µM
IC50 ([10]; A498): 1.1 µM
LC50 (lethal concentration 50%) ([10]; A498, read-out: LD50 (lethal dose 50)): > 100 µM
IC (TGI) ([10]; A498, read-out: TGI (total growth inhibition concentration)): 6.6 µM
IC50 [11]: 2.33 µM
IC50 [12]: 1.96 µM
IC50 [13]: 3.44 µM
IC50 [14]: 2.99 µM
IC50 [15]: 2.62 µM
IC50 [16]: 3.05 µM
IC50 [17]: 2.27 µM
IC50 [18]: 1.95 µM
IC50 [19]: 5.28 µM

melting point: 154 to 156 °C
Compound: O=S(=O)(NCCCNc1cc(-c2cn(-c3ccccc3)nc2-c2cccc(O)c2)ccn1)c1ccccc1 [Compound 2j, N-(3-((4-(3-(3-Hydroxyphenyl)-1-phenyl-1H-pyrazol-4-yl)pyridin-2-yl)amino)propyl) benzenesulfonamide]

melting point: 146 to 148 °C
Compound: O=S(=O)(NCCNc1cc(-c2cn(-c3ccccc3)nc2-c2cccc(O)c2)ccn1)c1cccc2ccccc12 [Compound 1q, N-(2-((4-(3-(3-Hydroxyphenyl)-1-phenyl-1H-pyrazol-4-yl)pyridin-2-yl)amino)ethyl)naphthalene-1-sulfonamide]

melting point: 134 to 136 °C
Compound: COc1cccc(-c2nn(-c3ccccc3)cc2-c2ccnc(NCCCNS(=O)(=O)c3cccc4ccccc34)c2)c1 [Compound 2i, N-(3-((4-(3-(3-Methoxyphenyl)-1-phenyl-1H-pyrazol-4-yl)pyridin-2-yl)amino)propyl) naphthalene-1-sulfonamide]

melting point: 158 to 160 °C
Compound: Cc1ccc(S(=O)(=O)NCCCNc2cc(-c3cn(-c4ccccc4)nc3-c3cccc(O)c3)ccn2)cc1 [Compound 2n, N-(3-((4-(3-(3-Hydroxyphenyl)-1-phenyl-1H-pyrazol-4-yl)pyridin-2-yl)amino)propyl)-4-methylbenzenesulfonamide]

melting point: 118 to 120 °C
Compound: COc1cccc(-c2nn(-c3ccccc3)cc2-c2ccnc(NCCNS(=O)(=O)c3cccc(F)c3)c2)c1 [Compound 1h, 3-Fluoro-N-(2-((4-(3-(3-methoxyphenyl)-1-phenyl-1H-pyrazol-4-yl)pyridin-2-yl)amino)ethyl)benzenesulfonamide]

melting point: 94 to 96 °C
Compound: COc1cccc(-c2nn(-c3ccccc3)cc2-c2ccnc(NCCCNS(=O)(=O)c3ccc(C)cc3)c2)c1 [Compound 2f, N-(3-((4-(3-(3-Methoxyphenyl)-1-phenyl-1H-pyrazol-4-yl)pyridin-2-yl)amino)propyl)-4-methylbenzenesulfonamide]

Plasma stability, remaining unchanged ([1]; Human plasma, 30 min): 1.2%
Plasma stability, remaining unchanged ([1]; Human plasma, 30 min, listed as procaine): 1.2%
Plasma stability, remaining unchanged ([1]; Human plasma, 120 min): 0.2%
Plasma stability, remaining unchanged ([1]; Human plasma, 120 min, listed as procaine): 0.2%
Plasma stability, remaining unchanged ([1]; Rat plasma, 30 min): 89.9%
Plasma stability, remaining unchanged ([1]; Rat plasma, 120 min): 42.7%
Compound: CCN(CC)CCOC(=O)c1ccc(N)cc1 [Procaine]

melting point: 150 to 152 °C
Compound: COc1cccc(-c2nn(-c3ccccc3)cc2-c2ccnc(NCCNS(=O)(=O)c3ccc(C)cc3)c2)c1 [Compound 1f, N-(2-((4-(3-(3-Methoxyphenyl)-1-phenyl-1H-pyrazol-4-yl)pyridin-2-yl)amino)ethyl)-4-methylbenzenesulfonamide]

melting point: 124 to 126 °C
Compound: COc1ccc(S(=O)(=O)NCCCNc2cc(-c3cn(-c4ccccc4)nc3-c3cccc(OC)c3)ccn2)cc1 [Compound 2e, 4-Methoxy-N-(3-((4-(3-(3-methoxyphenyl)-1-phenyl-1H-pyrazol-4-yl)pyridin-2-yl)amino)propyl)benzenesulfonamide]

melting point: 146 to 148 °C
Compound: O=S(=O)(NCCNc1cc(-c2cn(-c3ccccc3)nc2-c2cccc(O)c2)ccn1)c1cccc(F)c1 [Compound 1p, 3-Fluoro-N-(2-((4-(3-(3-hydroxyphenyl)-1-phenyl-1H-pyrazol-4-yl)pyridin-2-yl)amino)ethyl)benzenesulfonamide]

melting point: 100 to 102 °C
Compound: O=S(=O)(NCCNc1cc(-c2cn(-c3ccccc3)nc2-c2cccc(O)c2)ccn1)c1ccccc1 [Compound 1j, N-(2-((4-(3-(3-Hydroxyphenyl)-1-phenyl-1H-pyrazol-4-yl)pyridin-2-yl)amino)ethyl) benzenesulfonamide]

melting point: 119 to 120 °C
Compound: COc1cccc(-c2nn(-c3ccccc3)cc2-c2ccnc(NCCCNS(=O)(=O)c3ccccc3)c2)c1 [Compound 2a, N-(3-((4-(3-(3-Methoxyphenyl)-1-phenyl-1H-pyrazol-4-yl)pyridin-2-yl)amino)propyl) benzenesulfonamide]

melting point: 114 to 116 °C
Compound: Cc1ccc(S(=O)(=O)NCCNc2cc(-c3cn(-c4ccccc4)nc3-c3cccc(O)c3)ccn2)cc1 [Compound 1n, N-(2-((4-(3-(3-Hydroxyphenyl)-1-phenyl-1H-pyrazol-4-yl)pyridin-2-yl)amino)ethyl)-4-methylbenzenesulfonamide]

melting point: 144 to 146 °C
Compound: COc1ccc(S(=O)(=O)NCCNc2cc(-c3cn(-c4ccccc4)nc3-c3cccc(OC)c3)ccn2)cc1 [Compound 1e, 4-Methoxy-N-(2-((4-(3-(3-methoxyphenyl)-1-phenyl-1H-pyrazol-4-yl)pyridin-2-yl)amino)ethyl)benzenesulfonamide]

Compound: CNC(=O)c1cc(Oc2ccc(NC(=O)Nc3ccc(Cl)c(C(F)(F)F)c3)cc2)ccn1 [Sorafenib, reference compound]
IC50 ([2]; U-251): 2.51 µM
IC50 [3]: 1.85 µM
IC50 ([5]; SK-MEL-5): 1.25 µM
IC50 ([7]; HT-29): 2.51 µM
IC50 ([8]; MDA-MB-468): 1.99 µM
IC50 ([9]; PC-3): 2.51 µM
IC50 [11]: 2.51 µM
IC50 [12]: 2.23 µM
IC50 [13]: 3.16 µM
IC50 [14]: 2.89 µM
IC50 [15]: 2.35 µM
IC50 [16]: 2.11 µM
IC50 [17]: 8.57 µM
IC50 [18]: 2.15 µM
IC50 [19]: 2.77 µM
